Assay results: patent US11142520B2, “LDHA activity inhibitors” (ARCTIC PHARMA AS, priority 2017, dated 2021)

Tests used:
LDHA = LDHA (Homo sapiens (Human), UniProt P00338); test: Coupled diaphorase assay, LDHA; format: biochemical; conditions: lactate to pyruvate direction, 4-7 nM LDHA
From the text: (§1) The inhibitory properties of the compounds were investigated using a coupled enzyme assay that links the lactate dehydrogenase (LDH) reaction to the production of fluorescent resorutin by diaphorase.
(§2) Human lactate dehydrogenases (LDH) catalyze the reversible interconversion between pyruvate and lactate. LDH is capable of catalyzing both the forward (pyruvate to lactate) and the reverse (lactate to pyruvate) reaction, using either NADH or NAD^+ as a cofactor. The reaction proceeds in either direction dependent on various factors, such as substrate availability, the presence of necessary cofactors, temperature and pH. Different isoforms (LDH A, B, and C) of the enzyme favor different reaction directions—LDHA prefers the conversion from pyruvate to lactate, whereas LDHB preferentially oxidizes lactate to pyruvate.
The coupled assay relies on the oxidation of NAD^+ to NADH throughout the conversion of lactate to pyruvate by LDH (isoforms A, B and C). The produced NADH serves as cofactor in the diaphorase reaction, which reduces non-fluorescent resazurin to fluorescent resorufin. Therefore, the assay indirectly monitors the rate of pyruvate production. Although the consumption of NADH can be directly monitored due to the intrinsic fluorescence of the molecule (excitation: 340 nm, emission: 460 nm) there are problems linked to the direct readout method. […] Shifting the assay to longer wavelengths by coupling the LDH reaction to the conversion of resazurin to fluorescent resorufin by diaphorase reduces this compound interference. The assay direction was thus chosen to provide a robust and reliable assay. […]
Compounds were tested in duplicates using 2-fold, 3-fold or 4-fold serial dilutions including 11 individual concentrations, starting from 5000 μM to 30 μM. […] The controls allowed for the calculation of the percentage inhibition for each data point. […] Enzyme solution leading to final concentrations of 4-7 nM LDHA or 6 nM LDHB, as well as 0.2 U/ml diaphorase in the reaction well was dispensed into 384-well plates (Greiner bio-one) using a CyBi®-SELMA robotic pipettor. Compound dilutions and the enzyme were incubated for at least 20 min at room temperature. […] The reaction was quenched by the addition of a stop solution (final concentrations: 20 mM EDTA, 400 mM NaCl, 40 mM pyruvate). Fluorescence was read out after 5 min of incubation at an excitation wavelength of 560 nm and an emission wavelength of 590 nm on a Perkin Elmer Victor X plate reader. […]
(§3) Fluorescence data was normalized to DMSO and inhibition controls resulting in percentage inhibition for every compound concentration. Dose response curves were fitted in KaleidaGraph (www.synergy.com) or Dotmatics software package (www.dotmatics.com) using a standard 4-parameter fit (Levenberg-Marquardt fitting procedure), resulting in IC50 values for the test compounds.

LDHB = LDHB (Homo sapiens (Human), UniProt P07195); test: Coupled diaphorase assay, LDHB; format: biochemical; conditions: lactate to pyruvate direction, 6 nM LDHB
Chain of LDHB (P07195 whole entry): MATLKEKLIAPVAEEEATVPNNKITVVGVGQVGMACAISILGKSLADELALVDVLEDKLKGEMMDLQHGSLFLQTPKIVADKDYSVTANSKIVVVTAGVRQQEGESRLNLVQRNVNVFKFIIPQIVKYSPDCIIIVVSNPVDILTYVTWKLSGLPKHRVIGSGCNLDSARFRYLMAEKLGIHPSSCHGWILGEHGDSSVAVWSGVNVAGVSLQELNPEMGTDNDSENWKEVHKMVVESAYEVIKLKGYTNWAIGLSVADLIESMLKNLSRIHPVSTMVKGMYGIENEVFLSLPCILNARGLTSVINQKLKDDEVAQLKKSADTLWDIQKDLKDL
From the text: as §1, §2
The coupled assay relies on the oxidation of NAD^+ to NADH throughout the conversion of lactate to pyruvate by LDH (isoforms A, B and C). The produced NADH serves as cofactor in the diaphorase reaction, which reduces non-fluorescent resazurin to fluorescent resorufin. Therefore, the assay indirectly monitors the rate of pyruvate production. Although the consumption of NADH can be directly monitored due to the intrinsic fluorescence of the molecule (excitation: 340 nm, emission: 460 nm) there are problems linked to the direct readout method. […] Shifting the assay to longer wavelengths by coupling the LDH reaction to the conversion of resazurin to fluorescent resorufin by diaphorase reduces this compound interference. The assay direction was thus chosen to provide a robust and reliable assay.
Applying the LDHA reaction in the preferred direction for the conversion of pyruvate to lactate under oxidation of NADH to NAD^+ would necessitate running the LDHA reaction to about 80% completion and adding the diaphorase assay reagents afterwards in order to avoid enzyme competition for NADH.
The controls allowed for the calculation of the percentage inhibition for each data point. […] Enzyme solution leading to final concentrations of 4-7 nM LDHA or 6 nM LDHB, as well as 0.2 U/ml diaphorase in the reaction well was dispensed into 384-well plates (Greiner bio-one) using a CyBi®-SELMA robotic pipettor. Compound dilutions and the enzyme were incubated for at least 20 min at room temperature. […] The reaction was quenched by the addition of a stop solution (final concentrations: 20 mM EDTA, 400 mM NaCl, 40 mM pyruvate). Fluorescence was read out after 5 min of incubation at an excitation wavelength of 560 nm and an emission wavelength of 590 nm on a Perkin Elmer Victor X plate reader. […]
as §3

COCCOC(=O)OC1=C(Sc2cc(Cl)ccc2Cl)C(=O)NC(c2ccc(N3CCOCC3)cc2)(c2ccsc2)C1 (racemic) [Example 17, 5-((2,5-dichlorophenyl)thio)-2-(4-morpholinophenyl)-6-oxo-2-(thiophen-3-yl)-1,2,3,6-tetrahydropyridin-4-yl (2-methoxyethyl) carbonate]
IC50 (LDHA): 10 to 50 µM

O=C1CC(c2ccc(N3CCOCC3)cc2)(c2ccsc2)NC(=O)C1Sc1cc(Cl)ccc1Cl (single isomer, unassigned) [Example 10 Enantiomer 1]
IC50 (LDHA): 0.5 to 10 µM

O=C1CC(c2ccc(N3CCOCC3)cc2)(c2ccsc2)NC(=O)C1Sc1cc(Cl)ccc1Cl (single isomer, unassigned) [Example 10 Enantiomer 2]
IC50 (LDHA): 10 to 50 µM

COCCOC(=O)OC1=C(Sc2cc(Cl)ccc2Cl)C(=O)NC(c2ccc(N3CCOCC3)cc2)(c2ccsc2)C1 (single isomer, unassigned) [Example 17 Enantiomer 1]
IC50 (LDHA): 10 to 50 µM

COCCOC(=O)OC1=C(Sc2cc(Cl)ccc2Cl)C(=O)NC(c2ccc(N3CCOCC3)cc2)(c2ccsc2)C1 (single isomer, unassigned) [Example 17 Enantiomer 2]
IC50 (LDHA): 0.5 to 10 µM

O=C1CC(c2ccsc2)(c2cccc(OCC3CCCC3)n2)NC(=O)C1Sc1ccc(Cl)cc1Cl (centres unmarked) [Example 1, 6-[6-(cyclopentylmethoxy)pyridin-2-yl]-3-[(2,4-dichlorophenyl)sulfanyl]-6-(thiophen-3-yl)piperidine-2,4-dione]
IC50 (LDHB): > 100 µM | IC50 (LDHA): 10 to 50 µM

O=C1CC(c2ccsc2)(c2cccc(Br)n2)NC(=O)C1Sc1ccc(F)cc1Cl (centres unmarked) [Example 2, 6-(6-bromopyridin-2-yl)-3-[(2-chloro-4-fluorophenyl)sulfanyl]-6-(thiophen-3-yl)piperidine-2,4-dione]
IC50 (LDHB): > 100 µM | IC50 (LDHA): 10 to 50 µM

CCOc1cccc(C2(c3ccsc3)CC(=O)C(Sc3ccc(F)cc3Cl)C(=O)N2)n1 (centres unmarked) [Example 4, 3-((2-chloro-4-fluorophenyl)thio)-6-(6-ethoxypyridin-2-yl)-6-(thiophen-3-yl)piperidine-2,4-dione]
IC50 (LDHB): > 100 µM | IC50 (LDHA): 10 to 50 µM

O=C1CC(c2ccsc2)(c2cccc(Br)n2)NC(=O)C1Sc1cccc(Cl)c1Cl (centres unmarked) [Example 6, 6-(6-bromopyridin-2-yl)-3-[(2,3-dichlorophenyl)sulfanyl]-6-(thiophen-3-yl)piperidine-2,4-dione]
IC50 (LDHB): > 100 µM | IC50 (LDHA): > 100 µM

O=C1CC(c2ccsc2)(c2cccc(OCC3CCCC3)n2)NC(=O)C1Sc1cccc(Cl)c1Cl (centres unmarked) [Example 7, 6-[6-(cyclopentylmethoxy)pyridin-2-yl]-3-[(2,3-dichlorophenyl)sulfanyl]-6-(thiophen-3-yl)piperidine-2,4-dione]
IC50 (LDHB): > 100 µM | IC50 (LDHA): 10 to 50 µM

O=C1CC(c2ccc(N3CCOCC3)cc2)(c2ccsc2)NC(=O)C1Sc1ccc(F)cc1Cl (centres unmarked) [Example 8, 3-((2-chloro-4-fluorophenyl)thio)-6-(4-morpholinophenyl)-6-(thiophen-3-yl)piperidine-2,4-dione]
IC50 (LDHB): 0.1 to 0.5 µM | IC50 (LDHA): 0.1 to 0.5 µM

O=C1CC(c2ccc(N3CCOCC3)cc2)(c2ccsc2)NC(=O)C1Sc1cccc(Cl)c1Cl (centres unmarked) [Example 9, 3-((2,3-dichlorophenyl)thio)-6-(4-morpholinophenyl)-6-(thiophen-3-yl)piperidine-2,4-dione]
IC50 (LDHB): > 100 µM | IC50 (LDHA): 0.5 to 10 µM

CCOC(=O)OC1=C(Sc2ccc(F)cc2Cl)C(=O)NC(c2ccsc2)(c2cccc(OCC3CCCC3)n2)C1 (centres unmarked) [Example 11, 5-[(2-chloro-4-fluorophenyl)sulfanyl]-2-[6-(cyclopentylmethoxy)pyridin-2-yl]-6-oxo-2-(thiophen-3-yl)-1,2,3,6-tetrahydropyridin-4-yl ethyl carbonate]
IC50 (LDHB): > 100 µM | IC50 (LDHA): > 100 µM

COC(=O)OC1=C(Sc2cccc(Cl)c2Cl)C(=O)NC(c2ccsc2)(c2cccc(OCC3CCCC3)n2)C1 (centres unmarked) [Example 12, 6′-(cyclopentylmethoxy)-5-((2,3-dichlorophenyl)thio)-6-oxo-2-(thiophen-3-yl)-1,2,3,6-tetrahydro-[2,2′-bipyridin]-4-yl methyl carbonate]
IC50 (LDHB): > 100 µM | IC50 (LDHA): > 100 µM

CCCCCCCCCCOC(=O)OC1=C(Sc2cc(Cl)ccc2Cl)C(=O)NC(c2ccsc2)(c2cccc(OCC3CCCC3)n2)C1 (centres unmarked) [Example 16, 6′-(cyclopentylmethoxy)-5-((2,5-dichlorophenyl)thio)-6-oxo-2-(thiophen-3-yl)-1,2,3,6-tetrahydro-[2,2′-bipyridin]-4-yl decyl carbonate]
IC50 (LDHA): > 100 µM

O=C1CC(c2cncnc2)(c2ccsc2)OC(=O)C1Sc1ccccc1Cl (centres unmarked) [Example 19, 3-((2-chlorophenyl)thio)-6-(pyrimidin-5-yl)-6-(thiophen-3-yl)dihydro-2H-pyran-2,4(3H)-dione]
IC50 (LDHA): 0.5 to 10 µM

COC(=O)OC1=C(Sc2ccccc2Cl)C(=O)OC(c2ccsc2)(c2ccc(Br)cn2)C1 (centres unmarked) [Example 21, 2-(5-bromopyridin-2-yl)-5-((2-chlorophenyl)thio)-6-oxo-2-(thiophen-3-yl)-3,6-dihydro-2H-pyran-4-yl methyl carbonate]
IC50 (LDHA): 10 to 50 µM

CC(C)COC(=O)OC1=C(Sc2cc(Cl)ccc2Cl)C(=O)NC(c2ccc(N3CCOCC3)cc2)(c2ccsc2)C1 (centres unmarked) [Example 26, 5-((2,5-dichlorophenyl)thio)-2-(4-morpholinophenyl)-6-oxo-2-(thiophen-3-yl)-1,2,3,6-tetrahydropyridin-4-yl isobutyl carbonate]
IC50 (LDHA): 50 to 100 µM

CC(=O)OC1=C(Sc2cc(Cl)ccc2Cl)C(=O)NC(c2ccc(N3CCOCC3)cc2)(c2ccsc2)C1 (centres unmarked) [Example 27, 5-((2,5-dichlorophenyl)thio)-2-(4-morpholinophenyl)-6-oxo-2-(thiophen-3-yl)-1,2,3,6-tetrahydropyridin-4-yl acetate]
IC50 (LDHA): 10 to 50 µM

CC(C)(C)C(=O)OC1=C(Sc2cc(Cl)ccc2Cl)C(=O)NC(c2ccc(N3CCOCC3)cc2)(c2ccsc2)C1 (centres unmarked) [Example 28, 5-((2,5-dichlorophenyl)thio)-2-(4-morpholinophenyl)-6-oxo-2-(thiophen-3-yl)-1,2,3,6-tetrahydropyridin-4-yl pivalate]
IC50 (LDHA): 10 to 50 µM

O=C1NC(c2ccc(N3CCOCC3)cc2)(c2ccsc2)CC(OC(=O)c2ccncc2)=C1Sc1cc(Cl)ccc1Cl (centres unmarked) [Example 31, 5-((2,5-dichlorophenyl)thio)-2-(4-morpholinophenyl)-6-oxo-2-(thiophen-3-yl)-1,2,3,6-tetrahydropyridin-4-yl isonicotinate]
IC50 (LDHA): 0.5 to 10 µM

COCCOC(=O)OC1=C(Sc2cc(Cl)ccc2Cl)C(=O)NC(c2ccsc2)(c2cccc(OCC3CCCC3)n2)C1 (centres unmarked) [Example 34, 6′-(cyclopentylmethoxy)-5-((2,5-dichlorophenyl)thio)-6-oxo-2-(thiophen-3-yl)-1,2,3,6-tetrahydro-[2,2′-bipyridin]-4-yl (2-methoxyethyl) carbonate]
IC50 (LDHA): > 100 µM

COCCOC(=O)OC1=C(Sc2ccccc2Cl)C(=O)OC(c2cnc(N3CCOCC3)nc2)(c2ccsc2)C1 (centres unmarked) [Example 35, 5-((2-chlorophenyl)thio)-2-(2-morpholinopyrimidin-5-yl)-6-oxo-2-(thiophen-3-yl)-3,6-dihydro-2H-pyran-4-yl (2-methoxyethyl) carbonate]
IC50 (LDHA): 10 to 50 µM
